Read-outs that look alike come from different tables or passages of the source.
Columns and labels:
TEAD1 in NCI-H226 cells = TEAD1 in NCI-H226 cells (Homo sapiens (Human), UniProt P28347); assay: TEAD degradation in NCI-H226 cell line (immunofluorescence); format: cell-based
In short: (§1)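 SK-HEP1 and NCI-H226 cells were treated in duplicate for 16 or 24 h at 37 °C with compound (10 points, 1:3, top 30 µM final). After fixation, TEAD1 was immunostained with anti-TEF1 and per-cell fluorescence quantified by high-content imaging. DC50 from curve fitting.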

hsTEAD4 (217-424) = hsTEAD4 (217-424) (Homo sapiens (Human), UniProt Q15561); assay: Thermal shift measurement / Differential Scanning Fluorimetry (DSF); format: binding; conditions: 100 uM compound, 2 hours at 4° C., triplicates; read-out: ΔTm TEAD4 217-434
Protocol: (§2) Interaction of exemplary compounds with the various TEAD isoforms TEAD1, TEAD2, TEAD3, and TEAD4 was performed in a DSF assay. YAP-binding domains (YBD) of the four isoforms were subcloned and heterogeneously expressed in E. coli as a host. Initial purification was perfomed by using affinity tags, which got removed by overnight protease treatment. Further purification of TEAD isoforms was performed by Size-Exclusion Chromatography (SEC). Target protein containing fractions were pooled, concentrated with an Amicon (10 KDa MWCO) and quantified using the Bradford assay. Exemplary compound testing in the DSF assay for determining the shift of the TEAD isoform melting temperatures has been performed as described below: DSF was performed in MicroAmpTM EnduraPlateTM Optical 96-Well Clear Reaction Plates (Applied Biosystems, Life Technologies, California, USA) using a QuantStudio 7 Flex Real-Time PCR System (Applied Biosystems). Protein samples were briefly centrifuged before preparation. The final reaction mixture (20 μL of total volume) contained 11.8 μM of […]1 (209-426), 7.3 μM of […]2 (217-447), 7.9 μM of […]3 (216-435) or 11.7 μM of […]4 (217-424), and 2 or 4-fold of Protein Thermal ShiftTM Dye (Applied Biosystems) diluted in protein buffer-20 mM Tris pH 8.0, 150 mM NaCl (+0.5 mM TCEP for TEAD1 experiments). Prior to the addition of the dye, proteins were incubated with either 1 μL DMSO 100% (apo) or 100 uM of each exemplary compound (1 μL at 2 mM in 100% DMSO added to the […] reaction mixture) for 2 hours at 4° C. The melting curve data was recorded from 25 to 90° C. with an increment rate of 0.016° C.s^-1. Excitation and emission filters were applied for Protein Thermal ShiftTM Dye (470 nm and 520 nm, respectively) and for ROX reference dye (580 nm and 623 nm, respectively). The melting temperatures (Tm) were obtained by calculating the midpoint of each transition, using the Protein Thermal Shift SoftwareTM version 1.3. The thermal stability effect of each compound (ΔTm) was calculated by subtracting the calculated Tm in presence and absence (apo) of compound. All samples were tested in triplicates.

hsTEAD1 (209-426) [1] = target: T1, hsTEAD1 (209-426) (Homo sapiens (Human), UniProt P28347); assay: as above; format: binding; conditions: 100 uM compound, 2 hours at 4° C., triplicates; read-out: ΔTm TEAD1 (209-426)
Protocol: as §2

hsTEAD1 (209-426) [2] = target: T1, hsTEAD1 (209-426); assay: Surface Plasmon Resonance (SPR) assay; format: binding; conditions: Biacore 4000, 15° C., 1:1 Langmuir model, read-out: KD TEAD1 (209-426)
Protocol: The kinetic and affinity parameters of protein-exemplary compound interactions were evaluated by SPR. hsTEAD1 (209-426) was immobilized onto a CM7 (Series S) sensor chip via the standard amine coupling procedure, at 15° C. Prior to immobilization, the carboxymethylated surface of the chip was activated with 400 mM 1-ethyl-3-(3-dimethylaminopropyl)-carbodiimide and 100 mM N-hydroxysuccinimide for 10 min. hsTEAD1 (209-426) was diluted to 11 μg/mL in 10 mM Bis-Tris at pH 6.5 and immobilized on the activated surface chip for 8 and 10 min, in order to reach 6000 to 9000 response units (RU). The remaining activated carboxymethylated groups were blocked with a 7 min injection of 1 M ethanolamine pH 8.5 after which the surface chip was washed with 0.5% (w/v) sodium dodecyl sulphate and 50 mM glycine. HBS-N, which consists of 10 mM HEPES pH 7.4 and 150 mM NaCl, was used as the background buffer during immobilization. Exemplary compounds were prediluted in DMSO, diluted 1:50 in running buffer (20 mM Tris pH 7.4, 150 mM NaCl, 1 mM DTT, 5 mM MgCl2, 0.1 mM EGTA, 0.05% CHAPS) and injected at ten different concentrations using two-fold dilution series, from 100 μM to 0.2 μM. A DMSO solvent correction (1%-3%) was performed to account for variations in bulk signal and to achieve high-quality data. Interaction analysis cycles consisted of a 240 sec sample injection (30 μL/min; association phase) followed by 600 sec of buffer flow (dissociation phase).
All sensorgrams were processed by first subtracting the binding response recorded from the control surface (reference spot), followed by subtracting of the buffer blank injection from the reaction spot. All datasets were fit to a simple 1:1 Langmuir interaction model to determine the kinetic rate constants, KD. Experiments were performed on a Biacore 4000 (Cytiva, Uppsala, Sweden) at 15° C. and the interactions were evaluated using the provided Biacore 4000 evaluation software.

TEAD1 in SK-HEP1 cells = TEAD1 in SK-HEP1 cells (Homo sapiens (Human), UniProt P28347); assay: TEAD degradation in SK-HEP1 cell line (immunofluorescence); format: cell-based
In short: as §1

[3] = 24 hours, ranges, read-out: DC50 NCI-H226
[4] = 24 hours, ranges, read-out: DC50 SK-HEP1
[5] = 24 h incubation, read-out: DC50 SK-HEP1 24 h
[6] = 24 h incubation, read-out: DC50 NCI-H226 24 h

T1 sequence (P28347 209-426): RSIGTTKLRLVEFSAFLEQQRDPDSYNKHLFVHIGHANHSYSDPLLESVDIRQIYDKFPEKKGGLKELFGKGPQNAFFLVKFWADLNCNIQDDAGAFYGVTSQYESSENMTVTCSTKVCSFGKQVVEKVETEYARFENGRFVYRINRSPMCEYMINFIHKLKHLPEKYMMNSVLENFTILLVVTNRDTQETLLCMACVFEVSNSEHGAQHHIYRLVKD
TEAD1 in NCI-H226 cells, sequence (P28347 whole entry): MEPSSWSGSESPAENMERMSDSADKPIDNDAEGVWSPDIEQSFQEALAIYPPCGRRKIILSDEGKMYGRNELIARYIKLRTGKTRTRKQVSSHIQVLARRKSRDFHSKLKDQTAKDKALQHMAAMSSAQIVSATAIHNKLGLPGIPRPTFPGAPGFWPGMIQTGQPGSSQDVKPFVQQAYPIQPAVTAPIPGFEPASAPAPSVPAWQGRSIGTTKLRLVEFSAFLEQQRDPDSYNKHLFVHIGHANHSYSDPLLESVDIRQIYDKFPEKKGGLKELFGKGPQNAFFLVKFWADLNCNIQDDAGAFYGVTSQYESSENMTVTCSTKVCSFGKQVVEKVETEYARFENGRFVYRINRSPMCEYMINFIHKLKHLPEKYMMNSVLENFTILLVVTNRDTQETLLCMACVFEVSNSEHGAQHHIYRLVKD
TEAD1 in SK-HEP1 cells, sequence (P28347 whole entry): as above
hsTEAD4 (217-424), sequence (Q15561 217-434): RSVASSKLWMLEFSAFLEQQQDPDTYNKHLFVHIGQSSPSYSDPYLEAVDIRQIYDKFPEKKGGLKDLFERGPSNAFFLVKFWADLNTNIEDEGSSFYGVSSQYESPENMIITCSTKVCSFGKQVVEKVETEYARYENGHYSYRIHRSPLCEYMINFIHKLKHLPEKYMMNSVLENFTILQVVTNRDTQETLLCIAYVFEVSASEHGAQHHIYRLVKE

Row | SMILES | DC50 (TEAD1 in NCI-H226 cells; [3]) [nM] | Kd (hsTEAD1 (209-426) [2]) [nM] | DC50 (TEAD1 in SK-HEP1 cells; [4]) [nM] | DC50 (TEAD1 in SK-HEP1 cells; [5]) [nM] | DC50 (TEAD1 in NCI-H226 cells; [6]) [nM] | other results
1 | Cn1cc2c3cc(C(=O)NCCOCCOCCNC(=O)CCCCCCNc4cccc5c4C(=O)N(C4CCC(=O)NC4=O)C5=O)ccc3n(-c3ccc(C(F)(F)F)cc3)c2n1 (stereo not shown) [Compound 6, 7-{[2-(2,6-dioxopiperidin-3-yl)-1,3-dioxo-2,3-dihydro-1H-isoindol-4-yl]amino}-N-(2-{2-[2-({2-methyl-8-[4-(trifluoromethyl)phenyl]-2H,8H-pyrazolo[3,4-b]indol-5-yl}formamido)ethoxy]ethoxy}ethyl) heptanamide] | 100 to 1000 | 1400 |  |  |  | ΔTm at 100 µM (hsTEAD4 (217-424)): 1.4 °C; ΔTm at 100 µM (hsTEAD1 (209-426) [1]): -1.1 °C
2 | Cn1cc2c3cc(C(=O)NCCOCCOCCNC(=O)CCCNc4cccc5c4CN(C4CCC(=O)NC4=O)C5=O)ccc3n(-c3ccc(C(F)(F)F)cc3)c2n1 (stereo not shown) [Compound 14, 4-{[2-(2,6-dioxopiperidin-3-yl)-1-oxo-2,3-dihydro-1H-isoindol-4-yl]amino}-N-(2-{2-[2-({2-methyl-8-[4-(trifluoromethyl)phenyl]-2H,8H-pyrazolo[3,4-b]indol-5-yl}formamido)ethoxy]ethoxy}ethyl) butanamide] |  | 482 |  |  |  | 
3 | CN1C(=O)CCC(N2C(=O)c3cccc(NC(=O)COCCOCCOCCOCCNC(=O)c4ccc5c(c4)c4cn(C)nc4n5-c4ccc(C(F)(F)F)cc4)c3C2=O)C1=O (stereo not shown) [Compound 36, N-[2-(1-methyl-2,6-dioxopiperidin-3-yl)-1,3-dioxo-2,3-dihydro-1H-isoindol-4-yl]-14-({2-methyl-8-[4-(trifluoromethyl)phenyl]-2H,8H-pyrazolo[3,4-b]indol-5-yl}formamido)-3,6,9,12-tetraoxatetradecanamide] |  | 980 |  |  |  | 
4 | CCNC(=O)[C@H](Cc1ccc(F)cc1)NC(=O)[C@@H]1CCCN1C(=O)[C@@H](NC(=O)[C@H](C)NCCOCCOCCOCCNC(=O)c1ccc2c(c1)c1cn(C)nc1n2-c1ccc(C(F)(F)F)cc1)C1CCCCC1 (stereo in doubt) [Compound 69, (13S)—N-[(1S)-1-cyclohexyl-2-[(2S)-2-{[(1S)-1-(ethylcarbamoyl)-2-(4-fluorophenyl)ethyl]carbamoyl}pyrrolidin-1-yl]-2-oxoethyl]-13-methyl-1-({2-methyl-8-[4-(trifluoromethyl)phenyl]-2H,8H-pyrazolo[3,4-b]indol-5-yl}form-amido)-3,6,9-trioxa-12-azatetradecan-14-amide] | 9000 to 30000 |  | 3000 to 9000 |  |  | 
5 | Cn1cc2c3cc(C(=O)NCCOCCOCCNC(=O)CCCCNc4cccc5c4CN(C4CCC(=O)NC4=O)C5=O)ccc3n(-c3ccc(C(F)(F)F)cc3)c2n1 (stereo not shown) [Compound 9, 5-{[2-(2,6-dioxopiperidin-3-yl)-1-oxo-2,3-dihydro-1H-isoindol-4-yl]amino}-N-(2-{2-[2-({2-methyl-8-[4-(trifluoromethyl)phenyl]-2H,8H-pyrazolo[3,4-b]indol-5-yl}formamido)ethoxy]ethoxy}ethyl) pentanamide] |  | 970 | 1000 to 3000 | 2400 | 30000 | 
6 | Cc1ncsc1-c1ccc(CNC(=O)C2CC(O)CN2C(=O)C(NC(=O)COCCOCCOCCOCCNC(=O)c2ccc3c(c2)c2cn(C)nc2n3-c2ccc(C(F)(F)F)cc2)C(C)(C)C)cc1 (stereo in doubt) [Compound 12, (2S,4R)-1-{(2S)-3,3-dimethyl-2-[14-({2-methyl-8-[4-(trifluoromethyl)phenyl]-2H,8H-pyrazolo[3,4-b]indol-5-yl}formamido)-3,6,9,12-tetraoxatetradecanamido]butanoyl}-4-hydroxy-N-{[4-(4-methyl-1,3-thiazol-5-yl)phenyl]methyl}pyrrolidine-2-carboxamide] | 3000 to 9000 |  | 100 to 1000 |  |  | 
7 | Cc1ncsc1-c1ccc(CNC(=O)[C@@H]2C[C@@H](O)CN2C(=O)[C@@H](NC(=O)CCCCCCCCCNC(=O)c2ccc3c(c2)c2cn(C)nc2n3-c2ccc(C(F)(F)F)cc2)C(C)(C)C)cc1 [Compound 20, (2S,4R)-1-[(2S)-3,3-dimethyl-2-[10-({2-methyl-8-[4-(trifluoromethyl)phenyl]-2H,8H-pyrazolo[3,4-b]indol-5-yl}formamido)decanamido]butanoyl]-4-hydroxy-N-{[4-(4-methyl-1,3-thiazol-5-yl)phenyl]methyl}pyrrolidine-2-carboxamide] | 100 to 1000 |  | 100 to 1000 | 190 | 300 | 
8 | CC(=O)O[C@@H]1C[C@@H](C(=O)N[C@@H](C)c2ccc(-c3scnc3C)cc2)N(C(=O)[C@@H](NC(=O)CCCCCC(=O)NCCOCCOCCNC(=O)c2ccc3c(c2)c2cn(C)nc2n3-c2ccc(C(F)(F)F)cc2)C(C)(C)C)C1 [Compound 25, (3R,5S)-1-[(2S)-3,3-dimethyl-2-{6-[(2-{2-[2-({2-methyl-8-[4-(trifluoromethyl)phenyl]-2H,8H-pyrazolo[3,4-b]indol-5-yl}formamido)ethoxy]ethoxy}ethyl)carbamoyl]hexanamido}butanoyl]-5-{[(1S)-1-[4-(4-methyl-1,3-thiazol-5-yl)phenyl]ethyl]carbamoyl}pyrrolidin-3-yl acetate] | 1000 to 3000 |  | 100 to 1000 | 1000 | 1000 | DC50 (TEAD1 in SK-HEP1 cells; 16 h incubation, read-out: DC50 SK-HEP1 16 h): 1000 nM; DC50 (TEAD1 in NCI-H226 cells; 16 h incubation, read-out: DC50 NCI-H226 16 h): 1000 nM
9 | Cc1ncsc1-c1ccc(CNC(=O)[C@@H]2C[C@@H](O)CN2C(=O)[C@@H](NC(=O)COCCCOCCOCCNC(=O)c2ccc3c(c2)c2cn(C)nc2n3-c2ccc(C(F)(F)F)cc2)C(C)(C)C)cc1 [Compound 74, (2S,4R)-1-[(2S)-3,3-dimethyl-2-[2-(3-{2-[2-({2-methyl-8-[4-(trifluoro-methyl)phenyl]-2H,8H-pyrazolo[3,4-b]indol-5-yl}formamido)ethoxy]-ethoxy}propoxy)acetamido]butanoyl]-4-hydroxy-N-{[4-(4-methyl-1,3-thiazol-5-yl)phenyl]methyl}pyrrolidine-2-carboxamide] | 1000 to 3000 |  | 100 to 1000 |  |  | 
10 | Cc1ncsc1-c1ccc(CNC(=O)[C@@H]2C[C@@H](O)CN2C(=O)[C@@H](NC(=O)CCCOCCOCCOCCOCCNC(=O)c2ccc3c(c2)c2cn(C)nc2n3-c2ccc(C(F)(F)F)cc2)C(C)(C)C)cc1 [Compound 57, [(2S)-3,3-dimethyl-2-[1-({2-methyl-8-[4-(trifluoromethyl)phenyl]-2H,8H-pyrazolo[3,4-b]indol-5-yl}formamido)-3,6,9,12-tetraoxahexadecan-16-amido]butanoyl]-4-hydroxy-N-{[4-(4-methyl-1,3-thiazol-5-yl)phenyl]-methyl}pyrrolidine-2-carboxamide] | 1000 to 3000 |  | 1000 to 3000 |  |  | 
